≈ marks a conversion by molar mass, not a printed value. Where two headings read alike, the source gives them in different places.
Legend:
Solubility = format: physicochemical
vWF = assay: Western blot of retinal homogenates, vWF; format: in vivo, Sprague–Dawley rats; conditions: diabetic rats, 40 mg/kg/day scutellarin, 8 weeks, compared to diabetic rats treated with or without Chit-DC
Description: (§1) Type 2 diabetes was induced in male Sprague–Dawley rats (weighing 230–250 g, Experimental Animal Center of Sun Yat-sen University, China. Certificate No: SCXK (Q) 2011-0029). All animals were housed five per cage in a room and maintained at a constant temperature (22 °C) under a 12/12 h light/dark cycle. All procedures were carried out according to the National Institutes of Health Guide for Care and Use of Laboratory Animals and were approved by the Bioethics Committee of Sun Yat-sen University. Rats were randomly assigned to a control group, a Scu group (normal rats with 40 mg/kg/day scutellarin treatments), and five type II diabetes model groups (n = 8/group). The control and Scu groups were fed for 16 weeks on regular standard diets, while rats from type II diabetes model groups (T2D) were fed a high-fat (HFS, Guangdong Medical Laboratory Animal Center, Guangzhou, China) diet for 16 weeks that consisted of 30% from total kcal from fats, 55% from carbohydrates and 15% from protein. […] Blood glucose and body weight were monitored 3 days after the STZ or citrate buffer injection, and once a week thereafter. […]

Caco-2 cell monolayers = assay: Caco-2 cell permeability (AP to BL transport); format: in vitro ADME, human; conditions: estimated from Papp based on the previous research
Description: (§2) Caco-2 cells were seeded in 12-well transport inserts at a density of 2 × 10^5 cells/cm^2 in DMEM. Cells were maintained at 37 °C in a humidified atmosphere containing 5% CO2 for 21 days. Monolayers with transendothelial electrical resistance values above 300 Ω cm^2 were used in this study. On the day of the transport experiments, the culture medium was replaced with hank’s balanced salt solution (HBSS). Before the assay, Caco-2 cells monolayers was rinsed twice and incubated with the transport medium for an hour. After removing the transport medium, scutellarin, Chit-DC-Scu, Chit-DC-VB12-Scu (10 μg/ml scutellarin) alone or in the presence of IF ([…], 20 μl of a 100 IU/ml solution) were add to the apical side (0.5 ml) and 1.5 ml DMEM was added to the basolateral side of Transwell inserts. Cells were maintained at 37 °C in a humidified atmosphere containing 5% CO2 with orbital shaking at 50 rpm throughout the assay. At pre-determined intervals of 0, 30, 60, 90 and 120 min, 50 μl of transport buffer at the basolateral side was collected and mixed with the same volume of methanol, and an equal amount of DMEM was instantly added to the basolateral side to maintain a constant dissolution volume. The assay was performed in triplicate. Concentrations of scutellarin, Chit-DC-Scu and Chit-DC-VB12-Scu in corresponding samples were assessed by HPLC [35, 36].

[1] = Caco-2 cell permeability (AP to BL transport); format: in vitro ADME, human; conditions: human; Caco-2 monolayers, 10 μg/ml scutellarin, without IF; read-out: Papp, AP side to BL side
Description: as §2

[2] = system: retina of type II diabetic rats; assay: Retinal histopathology (hematoxylin and eosin), type 2 diabetic model; format: in vivo, Sprague–Dawley rats; conditions: 40 mg/kg/day scutellarin
Description: as §1

[3] = Pharmacokinetics study in vivo, single oral dose; conditions: male, Sprague-Dawley, rat, rats, oral gavage, scutellarin dose 40 mg/kg, n = 6, mean ± SD; for half-life: plasma, po, 40 mg/kg
Description: Male Sprague–Dawley rats (weighing 220–250 g) were fasted for 12 h, but allowed water ad libitum the day before drug administration. Scutellarin, Chit-DC-Scu, and Chit-DC-VB12-Scu were resuspended in PBS and administered to rats (at the same scutellarin dose of 40 mg/kg) by oral gavage. Blood samples (0.2 ml) were collected from the tail vein of each rat before dosing and at 0.25, 0.5, 0.75, 1, 2, 3, 5, 8, 12, 24 h post-dosing. An equal volume of 0.9% saline solution was injected after each collection. Plasma samples were obtained by centrifugation at 10,000 rpm for 10 min immediately after blood collection and were stored at −20 °C until analysis. HPLC (Agilent 1100, USA) was used to determine the concentration of scutellarin in plasma.

[4] = system: central retinal artery of type II diabetic rats; assay: Color Doppler sonography of central retinal vasculature, type 2 diabetic model; format: in vivo, Sprague–Dawley rats; conditions: 40 mg/kg/day scutellarin
Description: Type 2 diabetes was induced in male Sprague–Dawley rats (weighing 230–250 g, Experimental Animal Center of Sun Yat-sen University, China. Certificate No: SCXK (Q) 2011-0029). All animals were housed five per cage in a room and maintained at a constant temperature (22 °C) under a 12/12 h light/dark cycle. All procedures were carried out according to the National Institutes of Health Guide for Care and Use of Laboratory Animals and were approved by the Bioethics Committee of Sun Yat-sen University. Rats were randomly assigned to a control group, a Scu group (normal rats with 40 mg/kg/day scutellarin treatments), and five type II diabetes model groups (n = 8/group). The control and Scu groups were fed for 16 weeks on regular standard diets, while rats from type II diabetes model groups (T2D) were fed a high-fat (HFS, Guangdong Medical Laboratory Animal Center, Guangzhou, China) diet for 16 weeks that consisted of 30% from total kcal from fats, 55% from carbohydrates and 15% from protein. After 8 weeks on the HFS diet, rats in the T2D groups were fasted overnight and each rat received a single intraperitoneal injection of streptozotocin (STZ, Sigma, USA) at a dose of 30 mg/kg body weight the following morning while the rats in the control group were injected with an equal volume of citrate buffer. The STZ was freshly diluted in citrate buffer (0.1 mol/l, pH 4.0). After the injection, the HFS diet feeding was continued. Blood glucose and body weight were monitored 3 days after the STZ or citrate buffer injection, and once a week thereafter. […]
Prior to sacrifice, all rats were anesthetized and color Doppler sonography analysis of the right eye was performed. […] At least three measurements were recorded for each animal and the mean of the three readings was taken as the representative value. The resistivity index (RI) of the central retinal artery (CRA) was calculated by subtracting the diastolic velocity (DV) from the peak systolic velocity (SV) and then dividing by the systolic velocity [(SV − DV)/SV] […]

[5] = system: membranes over expressing several common transporters; design: method as in PMID 27586020; conditions: cited from earlier work
[6] = cited from earlier work
VEGF = assay: Western blot of retinal homogenates, VEGF; format: in vivo, Sprague–Dawley rats; conditions: diabetic rats, 40 mg/kg/day scutellarin, 8 weeks, compared to diabetic rats treated with or without Chit-DC
Description: as §1

VEGFR2 = assay: Western blot of retinal homogenates, VEGFR2; format: in vivo, Sprague–Dawley rats; conditions: diabetic rats, 40 mg/kg/day scutellarin, 8 weeks, compared to diabetic rats treated with or without Chit-DC
Description: as §1

[7] = T2D rats, intragastric, 8 weeks, compared to DM rats

SMILES | solubility in distilled water (Solubility; distilled water) | solubility in methanol and PBS solution (Solubility; methanol and PBS solution (pH7.2)) | expression of vWF in the retina (vWF) | scutellarin absorbed by the small intestine (Caco-2 cell monolayers) | Papp at 120 min, 10 μg/ml [1] [×10⁻⁶ cm/s] | retinal morphology (HE staining) in normal rats [2] | half-life ([3]; read-out: T1/2(α) (converted)) [h] | half-life ([3]; read-out: T1/2(β) (converted)) [h] | Cmax ([3]; plasma scutellarin) [ng/mL] | Tmax ([3]; plasma scutellarin) [h] | retinal blood flow velocity [4, 7] | retinal resistivity index (RI) [4, 7] | blood flow velocity or RI in normal rats ([4]; normal (non-diabetic) rats) | increase of Papp(AP-BL) [5] [fold] | water solubility [6] [µg/mL] | expression of VEGF in the retina (VEGF) | expression of VEGFR2 in the retina (VEGFR2) | water solubility of triamcinolone acetonide acetate ([6]; free drug versus loaded in deoxycholic acid-modified chitosan nanoparticles) [µg/mL]
O=C(O)[C@H]1O[C@@H](Oc2cc3oc(-c4ccc(O)cc4)cc(=O)c3c(O)c2O)[C@H](O)[C@@H](O)[C@@H]1O [Scu, 4′,5,6-trihydroxyflavone-7-O-glucuronide] | poorly dissolved | soluble | downregulated | about 1% | 0.32 | continuous with normal capillary structure | 0.405 ± 0.055 | 1.88 ± 0.105 | 129 ± 85.5 | 1.24 ± 0.025 | increased blood flow velocities | reduced retinal RI values | No significant changes in blood flow velocity or RI | 3.5 | 160 (≈ 346 µM) | downregulated | downregulated | –
CC(=O)OCC(=O)[C@@]12OC(C)(C)O[C@@H]1C[C@H]1[C@@H]3CCC4=CC(=O)C=C[C@]4(C)[C@@]3(F)[C@@H](O)C[C@@]12C [triamcinolone acetonide acetate] | – | – | – | – | – | – | – | – | – | – | – | – | – | – | – | – | – | 300

— article PMC5333415, “Enhancement of scutellarin oral delivery efficacy by vitamin B12-modified amphiphilic chitosan derivatives to treat type II diabetes induced-retinopathy” (Journal of Nanobiotechnology, 2017)
